Test results as given in US11959083B2, “Immunosuppression-reverting oligonucleotides inhibiting the expression of CD39” (Secarna Pharmaceuticals GmbH & Co. KG, priority 2016, dated 2024).
l = locked nucleic acid (LNA); d = 2'-deoxy (DNA)

Each substance was assayed on mCD39 mRNA (assay: mCD39 mRNA knockdown efficacy screen in A20 cells (single dose, gymnotic delivery, QuantiGene Singleplex)). Conditions: 10 μM, three days, normalized to HPRT1.
Assay type: cell-based, mouse
Procedure: FIG. 14-1 and 14-2 show mCD39 mRNA knockdown efficacy of mCD39 antisense oligonucleotides in the murine cancer cell line A20 (mouse B cell lymphoma). A20 cells were treated with a single dose of 10 μM of the respective antisense oligonucleotide. As negative control, cells were treated with neg1, an antisense oligonucleotide having the sequence CGTTTAGGCTATGTACTT (SEQ ID NO:99). Residual mCD39 mRNA expression relative to untreated cells is depicted. Expression values were normalized to expression of the housekeeping gene HPRT1.
In order to analyze the efficacy of mCD39 antisense oligonucleotides with regard to the knockdown of mCD39 mRNA expression in a cancer cell line, A20 (mouse B cell lymphoma, ATCC) cells were treated with a single dose (concentration: 10 μM without addition of any transfection reagent; this process is called gymnotic delivery) of the respective antisense oligonucleotide as indicated in FIG. 14. As control, cells were treated with neg1, an antisense oligonucleotide having the sequence CGTTTAGGCTATGTACTT (SEQ ID NO:99). mCD39 and HPRT1 mRNA expression was analyzed after three days using the QuantiGene Singleplex assay (Affymetrix) and mCD39 expression values were normalized to HPRT1 expression values.
For “+A*+C*+A*T*T*T*C*T*T*A*C*T*C*+G*+T*+T (antisense ACATTTCTTACTCGTT; sugars from the 5' end l3 d10 l3, all phosphorothioate, methylation of C not given here) [A04022MR]”, the “Relative mCD39 mRNA expression (compared to non-treated cells)” value was 0.20.
In the case of “+A*+G*+A*T*C*C*A*A*A*G*C*G*C*+C*+A*+A (antisense AGATCCAAAGCGCCAA; sugars from the 5' end l3 d10 l3, all phosphorothioate, methylation of C not given here) [A04013MR]”, the “Relative mCD39 mRNA expression (compared to non-treated cells)” value is reported as 0.06.
In the case of “+A*+G*+C*A*T*T*T*T*G*G*C*A*T*+C*+A*+C (antisense AGCATTTTGGCATCAC; sugars from the 5' end l3 d10 l3, all phosphorothioate, methylation of C not given here) [A04020MR]”, the “Relative mCD39 mRNA expression (compared to non-treated cells)” value is reported as 0.06.
For “+A*+G*+T*A*A*T*C*C*A*C*C*C*+A*+T*+A (antisense AGTAATCCACCCATA; sugars from the 5' end l3 d9 l3, all phosphorothioate, methylation of C not given here) [A04001MR]”, the “Relative mCD39 mRNA expression (compared to non-treated cells)” value was 0.02.
“+A*+G*+T*T*A*T*A*G*C*C*T*T*G*+C*+A*+G (antisense AGTTATAGCCTTGCAG; sugars from the 5' end l3 d10 l3, all phosphorothioate, methylation of C not given here) [A04017MR]” was tested, and the “Relative mCD39 mRNA expression (compared to non-treated cells)” value was 0.07.
“+A*+T*+C*C*A*A*A*G*C*G*C*C*A*A*+A*+G*+G (antisense ATCCAAAGCGCCAAAGG; sugars from the 5' end l3 d11 l3, all phosphorothioate, methylation of C not given here) [A04026MR]” was tested, and the “Relative mCD39 mRNA expression (compared to non-treated cells)” value was 0.04.
In the case of “+C*+A*+C*A*T*T*A*G*C*T*G*C*+A*+C*+G (antisense CACATTAGCTGCACG; sugars from the 5' end l3 d9 l3, all phosphorothioate, methylation of C not given here) [A04007MR]”, the “Relative mCD39 mRNA expression (compared to non-treated cells)” value is reported as 0.07.
In the case of “+C*+A*+C*T*G*T*T*C*G*T*A*G*T*+C*+T*+C (antisense CACTGTTCGTAGTCTC; sugars from the 5' end l3 d10 l3, all phosphorothioate, methylation of C not given here) [A04014MR]”, the “Relative mCD39 mRNA expression (compared to non-treated cells)” value is reported as 0.20.
“+C*+C*+A*C*T*T*G*T*A*G*A*T*G*+T*+A*+C (antisense CCACTTGTAGATGTAC; sugars from the 5' end l3 d10 l3, all phosphorothioate, methylation of C not given here) [A04010MR]” was tested, and the “Relative mCD39 mRNA expression (compared to non-treated cells)” value was 0.25.
With “+C*+C*+C*A*G*C*A*G*A*T*A*G*T*T*+A*+A*+T (antisense CCCAGCAGATAGTTAAT; sugars from the 5' end l3 d11 l3, all phosphorothioate, methylation of C not given here) [A04024MR]” the “Relative mCD39 mRNA expression (compared to non-treated cells)” value was 0.35.
With “+C*+C*+T*A*G*T*T*G*T*G*T*A*+T*+A*+C (antisense CCTAGTTGTGTATAC; sugars from the 5' end l3 d9 l3, all phosphorothioate, methylation of C not given here) [A04008MR]” the “Relative mCD39 mRNA expression (compared to non-treated cells)” value was 0.58.
With “+C*+C*+T*A*G*T*T*G*T*G*T*A*T*+A*+C*+T (antisense CCTAGTTGTGTATACT; sugars from the 5' end l3 d10 l3, all phosphorothioate, methylation of C not given here) [A04021MR]” the “Relative mCD39 mRNA expression (compared to non-treated cells)” value was 0.35.
For “+C*+G*+T*T*G*C*T*G*T*C*T*T*T*+G*+A*+T (antisense CGTTGCTGTCTTTGAT; sugars from the 5' end l3 d10 l3, all phosphorothioate, methylation of C not given here) [A04018MR]”, the “Relative mCD39 mRNA expression (compared to non-treated cells)” value was 0.18.
For “+C*+G*+T*T*G*C*T*G*T*C*T*T*T*G*+A*+T*+C (antisense CGTTGCTGTCTTTGATC; sugars from the 5' end l3 d11 l3, all phosphorothioate, methylation of C not given here) [A04031MR]”, the “Relative mCD39 mRNA expression (compared to non-treated cells)” value was 0.14.
For “+C*+T*+G*T*T*C*G*T*A*G*T*C*+T*+C*+C (antisense CTGTTCGTAGTCTCC; sugars from the 5' end l3 d9 l3, all phosphorothioate, methylation of C not given here) [A04004MR]”, the “Relative mCD39 mRNA expression (compared to non-treated cells)” value was 0.17.
In the case of “+G*+A*+C*C*T*T*T*C*A*C*T*T*G*G*C*A*+T (antisense GACCTTTCACTTGGCAT; sugars from the 5' end l3 d13 l1, all phosphorothioate, methylation of C not given here) [A04023MR]”, the “Relative mCD39 mRNA expression (compared to non-treated cells)” value is reported as 0.03.
In the case of “+G*+A*+T*C*C*A*A*A*G*C*G*C*+C*+A*+A (antisense GATCCAAAGCGCCAA; sugars from the 5' end l3 d9 l3, all phosphorothioate, methylation of C not given here) [A04002MR]”, the “Relative mCD39 mRNA expression (compared to non-treated cells)” value is reported as 0.06.
“+G*+C*+C*C*A*G*C*A*G*A*T*A*G*+T*+T*+A (antisense GCCCAGCAGATAGTTA; sugars from the 5' end l3 d10 l3, all phosphorothioate, methylation of C not given here) [A04012MR]” was tested, and the “Relative mCD39 mRNA expression (compared to non-treated cells)” value was 0.78.
“+G*+C*+C*C*A*G*C*A*G*A*T*A*G*T*+T*+A*+A (antisense GCCCAGCAGATAGTTAA; sugars from the 5' end l3 d11 l3, all phosphorothioate, methylation of C not given here) [A04025MR]” was tested, and the “Relative mCD39 mRNA expression (compared to non-treated cells)” value was 0.35.
“+G*+C*+T*A*T*A*C*T*G*C*C*T*C*+T*+T*+T (antisense GCTATACTGCCTCTTT; sugars from the 5' end l3 d10 l3, all phosphorothioate, methylation of C not given here) [A04019MR]” was tested, and the “Relative mCD39 mRNA expression (compared to non-treated cells)” value was 0.05.
For “+G*+C*+T*A*T*A*C*T*G*C*C*T*C*T*+T*+T*+C (antisense GCTATACTGCCTCTTTC; sugars from the 5' end l3 d11 l3, all phosphorothioate, methylation of C not given here) [A04032MR]”, the “Relative mCD39 mRNA expression (compared to non-treated cells)” value was 0.02.
For “+G*+G*+T*A*C*T*T*C*T*C*C*T*T*+T*+A*+C (antisense GGTACTTCTCCTTTAC; sugars from the 5' end l3 d10 l3, all phosphorothioate, methylation of C not given here) [A04016MR]”, the “Relative mCD39 mRNA expression (compared to non-treated cells)” value was 0.17.
“+G*+G*+T*G*G*C*A*C*T*G*T*T*+C*+G*+T (antisense GGTGGCACTGTTCGT; sugars from the 5' end l3 d9 l3, all phosphorothioate, methylation of C not given here) [A04005MR]” was tested, and the “Relative mCD39 mRNA expression (compared to non-treated cells)” value was 0.15.
In the case of “+G*+G*+T*G*G*C*A*C*T*G*T*T*C*G*+T*+A*+G (antisense GGTGGCACTGTTCGTAG; sugars from the 5' end l3 d11 l3, all phosphorothioate, methylation of C not given here) [A04030MR]”, the “Relative mCD39 mRNA expression (compared to non-treated cells)” value is reported as 0.21.
With “+G*+T*+A*C*A*G*G*T*T*G*G*T*G*+T*+G*+A (antisense GTACAGGTTGGTGTGA; sugars from the 5' end l3 d10 l3, all phosphorothioate, methylation of C not given here) [A04009MR]” the “Relative mCD39 mRNA expression (compared to non-treated cells)” value was 0.89.
“+G*+T*+T*A*T*A*G*C*C*T*T*G*+C*+A*+G (antisense GTTATAGCCTTGCAG; sugars from the 5' end l3 d9 l3, all phosphorothioate, methylation of C not given here) [A04006MR]” was tested, and the “Relative mCD39 mRNA expression (compared to non-treated cells)” value was 0.06.
With “+G*+T*+T*C*G*T*A*G*T*C*T*C*+C*+A*+G (antisense GTTCGTAGTCTCCAG; sugars from the 5' end l3 d9 l3, all phosphorothioate, methylation of C not given here) [A04003MR]” the “Relative mCD39 mRNA expression (compared to non-treated cells)” value was 0.07.
“+T*+A*+C*A*T*T*T*C*T*T*A*C*T*C*+G*+T*+T (antisense TACATTTCTTACTCGTT; sugars from the 5' end l3 d11 l3, all phosphorothioate, methylation of C not given here) [A04033MR]” was tested, and the “Relative mCD39 mRNA expression (compared to non-treated cells)” value was 0.12.
“+T*+C*+G*T*A*G*T*C*T*C*C*A*G*T*+G*+C*+C (antisense TCGTAGTCTCCAGTGCC; sugars from the 5' end l3 d11 l3, all phosphorothioate, methylation of C not given here) [A04027MR]” was tested, and the “Relative mCD39 mRNA expression (compared to non-treated cells)” value was 0.03.
“+T*+G*+G*C*A*C*T*G*T*T*C*G*T*+A*+G*+T (antisense TGGCACTGTTCGTAGT; sugars from the 5' end l3 d10 l3, all phosphorothioate, methylation of C not given here) [A04015MR]” was tested, and the “Relative mCD39 mRNA expression (compared to non-treated cells)” value was 0.32.
For “+T*+G*+T*T*C*G*T*A*G*T*C*T*C*C*+A*+G*+T (antisense TGTTCGTAGTCTCCAGT; sugars from the 5' end l3 d11 l3, all phosphorothioate, methylation of C not given here) [A04029MR]”, the “Relative mCD39 mRNA expression (compared to non-treated cells)” value was 0.11.
